Measured values published in patent US10888567B2, “Inhibitors of tryptophan dioxygenases (IDO1 and TDO) and their use in therapy” (AUCKLAND UNISERVICES LIMITED, priority 2014, dated 2021).

Columns and labels:
[1] = target: Recombinant human IDO1 (rhIDO1) (Homo sapiens (Human), UniProt P14902); assay: Enzymatic assay for IDO1 activity; type: biochemical; details: rhIDO1 9 nM, 80 μM TRP, 37° C. 30 min
Protocol: Recombinant human IDO1 (rhIDO1) was expressed and purified from cultures of EC538 strain of E. coli transformed with pREP4 and pQE9-IDO plasmid. Reaction mixes were set up in 384-well microplates containing 50 mM phosphate buffer, 10 mM ascorbic, 10 μM methylene blue, 100 μg/mL catalase, 80 μM TRP, 0.01% Tween 20 (v/v) mixed with rhIDO1 (15 μL) at a final concentration of 9 nM in a total volume of 30 μL assay medium. The plates were incubated at 37° C. for 30 min, and the enzymatic reaction was terminated by adding piperidine (200 mM) and heated at 65° C. for 20 min. Fluorescence intensity was read at λex 400 nm and λem 500 nm. Test compounds were dissolved in 100% DMSO and pre-diluted in assay medium prior to adding rhIDO1. IDO1 inhibition (%) was calculated as
[formula] All experiments were carried out in triplicates, and statistical Analyses were conducted in Prism v5 (Graphpad Software, Inc., La Jolla, Calif., USA). Cell-Based Assay for IDO1 Inhibition

[2] = target: human IDO1 (LLTC-hIDO1 cells) (Homo sapiens, UniProt P14902); assay: Cell-based assay for IDO1 inhibition (kynurenine in supernatant); details: IDO1-transfected Lewis Lung carcinoma cells, 24 h; read-out: Cellular IC50
Protocol: Culture supernatant from each well was then transferred into a fresh, flat-bottomed 96-well plate, mixed with trichloroacetic acid (10% final concentration) and incubated for 20 min at 60° C. […] The absorbance of each well was read at 480 nm, and the concentration that inhibited 50% cellular enzyme activity was calculated.

[3] = test system: Lewis Lung carcinoma cells transfected to express IDO1 (LLTC-hIDO1); assay: MTT cell viability in the cellular IDO1 assay; type: cell-based; details: same experiment as cellular IDO1 assay
Protocol: The viability of the cells in each well in the same experiment was determined using the 3-(4,5-dimethylthiazolyl-2-yl)-2,5-diphenyltetrazolium bromide (MTT) colourimetric assay. After the removal of the supernatant for determination of IDO1 inhibition, the cells were incubated with MTT (500 μg/mL) until crystal formation was observed. […] DMSO (100 μL/well) was added to dissolve the crystals and then the absorbance in each well was measured at 570 nm. Cell viability in each well was expressed as a percentage of untreated controls. Triplicate cultures were used for all experiments unless stated otherwise.

Recombinant human IDO1 (rhIDO1), sequence (P14902 whole entry): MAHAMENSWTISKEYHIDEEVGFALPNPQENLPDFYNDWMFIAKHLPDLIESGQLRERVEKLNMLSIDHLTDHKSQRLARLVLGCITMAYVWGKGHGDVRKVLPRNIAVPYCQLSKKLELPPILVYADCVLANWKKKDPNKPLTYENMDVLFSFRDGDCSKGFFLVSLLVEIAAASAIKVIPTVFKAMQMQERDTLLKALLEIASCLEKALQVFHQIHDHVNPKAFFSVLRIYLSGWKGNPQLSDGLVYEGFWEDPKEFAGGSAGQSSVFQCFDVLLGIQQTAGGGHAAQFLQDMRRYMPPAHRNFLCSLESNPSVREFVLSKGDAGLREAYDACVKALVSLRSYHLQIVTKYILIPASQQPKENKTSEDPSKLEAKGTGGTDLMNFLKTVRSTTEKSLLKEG

| SMILES | IC50 [1] [µM] | IC50 [2] [µM] | IC50 [3] [µM] |
| --- | --- | --- | --- |
| Nc1noc2ncncc12 [Compound 12, Isoxazolo[5,4-d]pyrimidin-3-amine] | > 100 | 1 to 10 | > 100 |
| Nc1noc2nccc(-c3ccccc3)c12 [Compound 13, 4-Phenylisoxazolo[5,4-b]pyridin-3-amine] | > 100 | > 100 | > 100 |
| Nc1noc2ncc(F)cc12 [Compound 14, 5-Fluoroisoxazolo[5,4-b]pyridin-3-amine] | > 100 | – | – |
| Nc1noc2nc(-c3ccccc3)ccc12 [Compound 15, 6-Phenylisoxazolo[5,4-b]pyridin-3-amine] | > 100 | 1 to 10 | > 100 |
| Nc1noc2ccncc12 [Compound 17, Isoxazolo[4,5-c]pyridin-3-amine] | > 100 | – | – |
| CN(C)c1ccc2c(N)noc2n1 [Compound 18, N^6,N^6-Dimethylisoxazolo[5,4-b]pyridine-3,6-diamine] | > 100 | – | – |
| CN(C)c1ccnc2onc(N)c12 [Compound 19, N^4,N^4-Dimethylisoxazolo[5,4-b]pyridine-3,4-diamine] | > 100 | – | – |
| CNc1noc2nc(C)c(Cl)c(C)c12 [Compound 20, 5-Chloro-N^3,4,6-trimethylisoxazolo[5,4-b]pyridin-3-amine] | > 100 | 10 to 100 | > 100 |
| Nc1noc2ncc(-c3ccccc3O)cc12 [Compound 28, 2-(3-Aminoisoxazolo[5,4-b]pyridin-5-yl)phenol] | > 100 | – | – |
| Nc1noc2ncc(-c3ccc(F)cc3)cc12 [Compound 30, 5-(4-Fluorophenyl)isoxazolo[5,4-b]pyridin-3-amine] | > 100 | – | – |
| Nc1ccc2c(N)noc2n1 [Compound 43, Isoxazolo[5,4-b]pyridine-3,6-diamine] | > 100 | – | – |
| Cc1cnc2onc(N)c2c1 [Compound 44, 5-Methylisoxazolo[5,4-b]pyridin-3-amine] | > 100 | 10 to 100 | > 100 |
| Cc1cc2c(N)noc2nc1C [Compound 45, 5,6-Dimethylisoxazolo[5,4-b]pyridin-3-amine] | > 100 | 10 to 100 | > 100 |
| Cc1cc(C(F)(F)F)c2c(N)noc2n1 [Compound 46, 6-Methyl-4-(trifluoromethyl)isoxazolo[5,4-b]pyridin-3-amine] | > 100 | 10 to 100 | > 100 |
| CC(C)c1ccc2c(N)noc2n1 [Compound 48, 6-Isopropylisoxazolo[5,4-b]pyridin-3-amine] | > 100 | 10 to 100 | > 100 |
| COc1ccnc2onc(N)c12 [Compound 51, 4-Methoxyisoxazolo[5,4-b]pyridin-3-amine] | > 100 | – | – |
| Cc1nc2onc(N)c2c(C)c1OC(F)F [Compound 52, 5-(Difluoromethoxy)-4,6-dimethylisoxazolo[5,4-b]pyridin-3-amine] | > 100 | 10 to 100 | > 100 |

| SMILES | IC50 [1] [µM] | IC50 [2] [µM] | IC50 [3] [µM] |
| --- | --- | --- | --- |
| CCOC(=O)c1cc2c(N)noc2nc1C [Compound 53, Ethyl 3-amino-6-methylisoxazolo[5,4-b]pyridine-5-carboxylate] | > 100 | – | – |
| CCOC(=O)c1cc2c(N)noc2nc1C(F)F [Compound 54, Ethyl 3-amino-6-(difluoromethyl)isoxazolo[5,4-b]pyridine-5-carboxylate] | > 100 | 10 to 100 | > 100 |
| Nc1noc2nc(N3CCOCC3)c(F)cc12 [Compound 55, 5-Fluoro-6-morpholinoisoxazolo[5,4-b]pyridin-3-amine] | > 100 | – | – |
| Nc1noc2nc(NC3CC3)c(F)cc12 [Compound 56, N6-Cyclopropyl-5-fluoroisoxazolo[5,4-b]pyridine-3,6-diamine] | > 100 | > 100 | > 100 |
| CN(C)c1nc2onc(N)c2cc1F [Compound 57, 5-Fluoro-N6,N6-dimethylisoxazolo[5,4-b]pyridine-3,6-diamine] | > 100 | > 100 | > 100 |
| Nc1noc2nc(-c3ccco3)ccc12 [Compound 58, 6-(Furan-2-yl)isoxazolo[5,4-b]pyridin-3-amine] | > 100 | 1 to 10 | > 100 |
| Nc1noc2nc3c(cc12)CCC3 [Compound 59, 6,7-Dihydro-5H-cyclopenta[b]isoxazolo[4,5-e]pyridin-3-amine] | > 100 | > 100 | > 100 |
| Nc1noc2nc3c(cc12)CCCCC3 [Compound 60, 6,7,8,9-Tetrahydro-5H-cyclohepta[b]isoxazolo[4,5-e]pyridin-3-amine] | > 100 | – | – |
| CC1(C)CCc2nc3onc(N)c3cc2C1 [Compound 61, 6,6-Dimethyl-5,6,7,8-tetrahydroisoxazolo[5,4-b]quinolin-3-amine] | > 100 | – | – |
| Nc1noc2nc3c(cc12)COCC3 [Compound 62, 7,8-Dihydro-5H-isoxazolo[5,4-b]pyrano[3,4-e]pyridin-3-amine] | > 100 | – | – |
| CSc1ncc2c(N)noc2n1 [Compound 63, 6-(Methylthio)isoxazolo[5,4-d]pyrimidin-3-amine] | > 100 | 10 to 100 | > 100 |
| Nc1noc2nc(Oc3ccccc3)ccc12 [Compound 83, 6-Phenoxyisoxazolo[5,4-b]pyridin-3-amine] | > 100 | – | – |
| Nc1noc2nc(Oc3cccc(Cl)c3)ccc12 [Compound 85, 6-(3-Chlorophenoxy)isoxazolo[5,4-b]pyridin-3-amine] | > 100 | – | – |
| Nc1noc2nc(Oc3ccc(Cl)cc3)ccc12 [Compound 86, 6-(4-Chlorophenoxy)isoxazolo[5,4-b]pyridin-3-amine] | > 100 | – | – |
| COc1cccc(Oc2ccc3c(N)noc3n2)c1 [Compound 91, 6-(3-Methoxyphenoxy)isoxazolo[5,4-b]pyridin-3-amine] | > 100 | – | – |
| COc1ccc(Oc2ccc3c(N)noc3n2)cc1 [Compound 92, 6-(4-Methoxyphenoxy)isoxazolo[5,4-b]pyridin-3-amine] | > 100 | – | – |

The remaining lines, values ahead:

| IC50 [1] [µM] | IC50 [2] [µM] | IC50 [3] [µM] | SMILES |
| --- | --- | --- | --- |
| 1 to 10 | < 1 | > 100 | Cc1nc2onc(N)c2c(C)c1Br [Compound 1, 5-Bromo-4,6-dimethylisoxazolo[5,4-b]pyridin-3-amine] |
| > 100 | 10 to 100 | > 100 | Nc1noc2ncccc12 [Compound 2, Isoxazolo[5,4-b]pyridin-3-amine] |
| 10 to 100 | 1 to 10 | > 100 | Cc1cc(C)c2c(N)noc2n1 [Compound 4, 4,6-Dimethylisoxazolo[5,4-b]pyridin-3-amine] |
| 10 to 100 | – | – | Cc1nc2onc(N)c2c(C)c1C [Compound 5, 4,5,6-Trimethylisoxazolo[5,4-b]pyridin-3-amine] |
| 10 to 100 | < 1 | > 100 | Nc1noc2ncc(Br)cc12 [Compound 6, 5-Bromoisoxazolo[5,4-b]pyridin-3-amine] |
| > 100 | – | – | Cc1ccc2c(N)noc2n1 [Compound 7, 6-Methylisoxazolo[5,4-b]pyridin-3-amine] |
| 10 to 100 | < 1 | > 100 | Nc1noc2ncc(Cl)cc12 [Compound 8, 5-Chloroisoxazolo[5,4-b]pyridin-3-amine] |
| 10 to 100 | 1 to 10 | > 100 | Nc1noc2nc3ccccc3cc12 [Compound 9, Isoxazolo[5,4-b]quinolin-3-amine] |
| > 100 | 1 to 10 | > 100 | Nc1noc2nc3c(cc12)CCCC3 [Compound 10, 5,6,7,8-Tetrahydroisoxazolo[5,4-b]quinolin-3-amine] |
| 1 to 10 | < 1 | > 100 | Nc1noc2ncc(I)cc12 [Compound 16, 5-Iodoisoxazolo[5,4-b]pyridin-3-amine] |
| < 1 | < 1 | > 100 | Cc1cc(Cl)nc2onc(N)c12 [Compound 42, 6-Chloro-4-methylisoxazolo[5,4-b]pyridin-3-amine] |
| < 1 | 1 to 10 | > 100 | Nc1noc2nc(C(F)(F)F)ccc12 [Compound 47, 6-(Trifluoromethyl)isoxazolo[5,4-b]pyridin-3-amine] |
| 1 to 10 | < 1 | > 100 | Nc1noc2ncc([N+](=O)[O-])cc12 [Compound 49, 5-Nitroisoxazolo[5,4-b]pyridin-3-amine] |
| 10 to 100 | 10 to 100 | > 100 | CCOC(=O)c1cc2c(N)noc2nc1C(F)(F)F [Compound 50, Ethyl 3-amino-6-(trifluoromethyl)isoxazolo[5,4-b]pyridine-5-carboxylate] |
